Converted amounts (≈) assume the structure as drawn.
Legend:
[1] = Inhibition of recombinant Plasmodium falciparum N-terminal His6-tagged GGPPS expressed in Escherichia coli expression system assessed as reduction in pyrophosphate release using GPP as substrate incubated for 30 mins followed by substrate addition by PPiLight detection reagent based luminescence assay
[2] = biological target: T1, Geranylgeranyl pyrophosphate synthase (Homo sapiens, UniProt O95749); assay: Inhibition of recombinant human N-terminal His6-tagged GGPPS assessed as reduction in pyrophosphate release using GPP as substrate upto 200 uM incubated for 30 mins followed by substrate addition by PPiLight detection reagent based luminescence assay; conditions: 0.5 h
T1 sequence (O95749 whole entry): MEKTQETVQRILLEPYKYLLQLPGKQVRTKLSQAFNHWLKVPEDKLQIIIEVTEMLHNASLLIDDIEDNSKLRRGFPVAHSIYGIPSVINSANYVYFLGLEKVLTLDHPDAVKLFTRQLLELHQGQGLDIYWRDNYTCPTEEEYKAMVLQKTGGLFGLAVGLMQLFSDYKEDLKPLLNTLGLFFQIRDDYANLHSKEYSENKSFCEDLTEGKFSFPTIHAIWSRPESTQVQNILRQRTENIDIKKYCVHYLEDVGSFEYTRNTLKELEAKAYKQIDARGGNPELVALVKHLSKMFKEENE

[3] = biological target: T2, Farnesyl pyrophosphate synthase (Homo sapiens, UniProt P14324); assay: Inhibition of recombinant human N-terminal His6-tagged FPPS assessed as reduction in pyrophosphate release using GPP as substrate upto 200 uM incubated for 30 mins followed by substrate addition by PPiLight detection reagent based luminescence assay; conditions: 0.5 h
T2 sequence (P14324 whole entry): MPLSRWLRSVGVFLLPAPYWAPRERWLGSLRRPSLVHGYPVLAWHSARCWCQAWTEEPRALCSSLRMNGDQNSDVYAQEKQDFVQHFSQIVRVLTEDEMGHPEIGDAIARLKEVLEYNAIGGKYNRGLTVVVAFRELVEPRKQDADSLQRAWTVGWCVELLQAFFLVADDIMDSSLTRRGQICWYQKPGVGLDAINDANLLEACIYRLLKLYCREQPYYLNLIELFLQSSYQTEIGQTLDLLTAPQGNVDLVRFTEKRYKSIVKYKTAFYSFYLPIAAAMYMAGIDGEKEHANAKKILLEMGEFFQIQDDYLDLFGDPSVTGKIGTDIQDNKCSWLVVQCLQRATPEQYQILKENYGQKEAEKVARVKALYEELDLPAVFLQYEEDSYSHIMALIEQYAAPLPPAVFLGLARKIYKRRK

Plasmodium falciparum = assay: Antimalarial activity against Plasmodium falciparum infected in human RBC assessed as reduction in parasite growth measured after 72 hrs by flow cytometry analysis; format: functional, organism-based; conditions: Erythrocyte
[4] = Lipophilicity, logD of the compound in octanol-buffer at pH 7.4 measured after 18 hrs under shaking condition by reverse phase HPLC-MS analysis; format: physicochemical
[5] = Metabolic stability in human liver microsomes assessed as intrinsic clearance; format: ADME, Microsome; conditions: read-out: CLH
[6] = Metabolic stability in mouse liver microsomes assessed as intrinsic clearance; format: ADME, Microsome; conditions: read-out: CLH
MDR1 [7] = assay: Apparent permeability in pig LLC-PK1 cells expressing MDR1 measured upto 360 mins; format: ADME, cell-based, Sus scrofa
MDR1 [8] = assay: Efflux ratio of apparent permeability in pig LLC-PK1 cells expressing MDR1 measured upto 360 mins; format: ADME, cell-based, Sus scrofa
[9] = Kinetic solubility of compound; format: physicochemical; conditions: read-out: Kinetic_solubility
[10] = Fraction unbound in iv dosed C57BL/6J mouse; format: ADME, organism-based; conditions: in vivo
[11] = Clearance in iv dosed C57BL/6J mouse; format: ADME, organism-based; conditions: in vivo
[12] = MRT in iv dosed C57BL/6J mouse; format: ADME, organism-based; conditions: in vivo
[13] = Volume of distribution in iv dosed C57BL/6J mouse; format: ADME, organism-based; conditions: in vivo
[14] = AUC in iv dosed C57BL/6J mouse; format: ADME, organism-based; conditions: in vivo

Structure (SMILES) | IC50 [1] | inhibition (INH) [2] | inhibition (INH) [3] | also measured
CC1CCN(CCCNC(=O)c2cnc(-c3ccccc3)s2)C1 (stereo not drawn) | 3150 nM | Not Active | Not Active | –
O=C(NCCCN1CCCC1)c1cnc(-c2ccccc2)s1 | 3100 nM | Not Active | Not Active | –
Cn1c(-c2ccccc2)cnc1C(=O)NCCCN1CCCCCC1 | 13000 nM | Not Active | Not Active | –
COC1CCN(CCCNC(=O)c2cnc(-c3ccccc3)s2)CC1 | 6060 nM | Not Active | Not Active | –
O=C(NCCCN1CCCCCC1=O)c1cnc(-c2ccccc2)s1 | > 10000 nM | Not Active | Not Active | –
O=C(NCCCN1CCCCCC1)c1cc(-c2ccccc2)ccn1 | 6080 nM | Not Active | Not Active | –
O=C(NCCCN1CCOCC1)c1cnc(-c2ccccc2)s1 | 12000 nM | Not Active | Not Active | –
CN(C)CCCNC(=O)c1cnc(-c2ccccc2)s1 | 6000 nM | Not Active | Not Active | –
CC1CCCN1CCCNC(=O)c1cnc(-c2ccccc2)s1 (stereo not drawn) | > 10000 nM | Not Active | Not Active | –
O=C(NCCCN1CCCCCC1)c1nnc(-c2ccccc2)o1 | 8120 nM | Not Active | Not Active | –
Cc1nc(-c2ccccc2)sc1C(=O)NCCCN1CCCCCC1 | 3790 nM | Not Active | Not Active | –
O=C(NCCCN1CCCCC1)c1cnc(-c2ccccc2)s1 | 2150 nM | Not Active | Not Active | –
O=C(NCCCN1CCC(F)CC1)c1cnc(-c2ccccc2)s1 | 2790 nM | Not Active | Not Active | –
O=C(NCCCN1CCCCCC1)c1ncc(-c2ccccc2)o1 | 2380 nM | Not Active | Not Active | –
O=C(NCCCN1CCCCCC1)c1cc(-c2ccccc2)cs1 | 2480 nM | Not Active | Not Active | –

These reach a lower IC50 [1]. Values come first.

IC50 [1] | inhibition (INH) [2] | inhibition (INH) [3] | Structure (SMILES) | also measured
800 nM | Not Active | Not Active | O=C(NCCCN1CCCCCC1)c1cnc(-c2ccccc2)s1 | –
1050 nM | Not Active | Not Active | O=C(CCCN1CCCCCC1)Nc1cnc(-c2ccc(F)c(F)c2)s1 | IC50 (Plasmodium falciparum): 40 nM; logD at 18 h [4]: 2.3; microsomal CLint [5]: 42 µL/min/mg; microsomal CLint [6]: 10 µL/min/mg; Papp at 6 h (MDR1 [7]): 5.2 ×10⁻⁶ cm/s; efflux ratio at 6 h (MDR1 [8]): 1.1; solubility kinetic [9]: > 94 µg/mL
1040 nM | Not Active | Not Active | O=C(NCCCN1CCCCCC1)c1nnc(-c2ccccc2)s1 | –
1420 nM | Not Active | Not Active | O=C(CCCN1CCCCCC1)Nc1cnc(-c2cccc(F)c2)s1 | –
1030 nM | Not Active | Not Active | Cc1nc(C(=O)NCCCN2CCCCCC2)sc1-c1ccccc1 | –
1610 nM | Not Active | Not Active | O=C(CCCN1CCCCC1)Nc1cnc(-c2ccc(F)cc2)s1 | IC50 (Plasmodium falciparum): 73 nM; logD at 18 h [4]: 1.81; microsomal CLint [5]: 15 µL/min/mg; microsomal CLint [6]: 14 µL/min/mg; Papp at 6 h (MDR1 [7]): 10.5 ×10⁻⁶ cm/s; efflux ratio at 6 h (MDR1 [8]): 1; solubility kinetic [9]: > 94 µg/mL
2030 nM | Not Active | Not Active | Cc1c(C(=O)NCCCN2CCCCCC2)noc1-c1ccccc1 | –
1830 nM | Not Active | Not Active | O=C(CCCN1CCCCCC1)Nc1cnc(-c2ccccc2)s1 | –
1800 nM | Not Active | Not Active | O=C(NCCCN1CCCCCC1)c1cc(-c2ccccc2)on1 | –
1330 nM | Not Active | Not Active | O=C(CCCN1CCCCCC1)Nc1cnc(-c2ccc(F)cc2)s1 | IC50 (Plasmodium falciparum): 37 nM; logD at 18 h [4]: 1.93; microsomal CLint [5]: 29 µL/min/mg; microsomal CLint [6]: 18 µL/min/mg; Papp at 6 h (MDR1 [7]): 9.5 ×10⁻⁶ cm/s; efflux ratio at 6 h (MDR1 [8]): 1.1; solubility kinetic [9]: > 97 µg/mL
950 nM | Not Active | Not Active | O=C(CCCN1CCCCCC1)Nc1cnc(-c2ccccc2F)s1 | –
500 nM | Not Active | Not Active | COc1cc(-c2ncc(NC(=O)CCCN3CCCCCC3)s2)ccc1F | –
960 nM | Not Active | Not Active | O=C(NCCCN1CCCCCC1)c1ncc(-c2ccccc2)s1 | –
1800 nM | Not Active | Not Active | O=C(CCCN1CCCCCC1)Nc1nnc(-c2ccc(F)cc2)s1 | IC50 (Plasmodium falciparum): 72 nM; logD at 18 h [4]: 1.97; microsomal CLint [5]: 39 µL/min/mg; microsomal CLint [6]: < 1 µL/min/mg; Papp at 6 h (MDR1 [7]): 12.6 ×10⁻⁶ cm/s; efflux ratio at 6 h (MDR1 [8]): 0.9; solubility kinetic [9]: > 91 µg/mL
1940 nM | Not Active | Not Active | O=C(CCCN1CCCOCC1)Nc1cnc(-c2ccc(F)cc2F)s1 | IC50 (Plasmodium falciparum): 74 nM; logD at 18 h [4]: 2.41; microsomal CLint [5]: < 1 µL/min/mg; microsomal CLint [6]: 22 µL/min/mg; Papp at 6 h (MDR1 [7]): 9.2 ×10⁻⁶ cm/s; efflux ratio at 6 h (MDR1 [8]): 1.5; solubility kinetic [9]: > 100 µg/mL; fraction unbound [10]: 0.09; clearance [11]: 25.3 mL/min/kg; MRT [12]: 2.63 h; Vd [13]: 4 L/kg; AUC [14]: 65.8 ng·h/mL
1340 nM | Not Active | Not Active | O=C(NCCCN1CCCCCC1)c1ccc(-c2ccccc2)s1 | –
930 nM | Not Active | Not Active | O=C(CCCN1CCCCCC1)Nc1cnc(-c2ccc(F)cc2F)s1 | IC50 (Plasmodium falciparum): 38 nM; logD at 18 h [4]: 2.11; microsomal CLint [5]: 42 µL/min/mg; microsomal CLint [6]: 24 µL/min/mg; Papp at 6 h (MDR1 [7]): 8.7 ×10⁻⁶ cm/s; efflux ratio at 6 h (MDR1 [8]): 0.8; solubility kinetic [9]: > 97 µg/mL
820 nM | Not Active | Not Active | Cn1c(=O)c2cc(C(=O)NCCCN3CCCCCC3)sc2c2ccccc21 | IC50 (Plasmodium falciparum): 90 nM; logD at 18 h [4]: 1.89; microsomal CLint [5]: < 1 µL/min/mg; microsomal CLint [6]: 483 µL/min/mg; Papp at 6 h (MDR1 [7]): 4.1 ×10⁻⁶ cm/s; efflux ratio at 6 h (MDR1 [8]): 6.8; solubility kinetic [9]: 69 µg/mL (≈ 174 µM)

Source: ChEMBL document CHEMBL4814020, “Nonbisphosphonate inhibitors of Plasmodium falciparum FPPS/GGPPS” (Bioorg Med Chem Lett, 2021)
